According to PMC8519569 (Science Advances, 2021):

Target: T1, PatA (Mycolicibacterium smegmatis, UniProt A0QWG5)
T1 sequence (A0QWG5 1-304): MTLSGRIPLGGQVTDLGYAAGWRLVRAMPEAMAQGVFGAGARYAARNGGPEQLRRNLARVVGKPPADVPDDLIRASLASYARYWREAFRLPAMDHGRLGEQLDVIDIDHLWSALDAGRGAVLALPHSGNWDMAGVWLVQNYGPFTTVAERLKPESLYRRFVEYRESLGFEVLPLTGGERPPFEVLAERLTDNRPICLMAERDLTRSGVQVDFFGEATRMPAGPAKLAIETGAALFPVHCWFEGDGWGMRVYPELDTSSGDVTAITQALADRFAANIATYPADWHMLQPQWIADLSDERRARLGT
Assay: isothermal titration calorimetry
Format: binding

## CCCCCCCCCCCCCCCCSCCNC(=O)CCNC(=O)[C@H](O)C(C)(C)COP(=O)(O)OP(=O)(O)OC[C@H]1O[C@@H](n2cnc3c(N)ncnc32)[C@H](O)[C@@H]1OP(=O)(O)O [S-C16-CoA, S-hexadecyl-CoA]
  Kd: 7.18 µM
